Reference: US11925632B2, “Isoquinoline derivatives for use in treating GLUT1 deficiency syndrome” (GLIAPHARM SA, priority 2019, dated 2024)

Assays:
primary mouse astrocytes = assay: Extracellular lactate quantification (lactate release from primary astrocytes); assay type: cell-based
Method: Primary cultures of cerebrocortical astrocytes were obtained from 1 to 2-day-old OF1 mouse pups (Charles River). Briefly, cortices were isolated and minced in small pieces under a dissecting microscope. The cells were incubated for 30 min at 37° C. in a solution containing 20 U/ml papain, 1 mM L-cysteine and 10 kU/ml DNase I. After dissociation, papain activity was stopped by the addition of fetal calf serum (FCS). Single-cell suspension was then obtained by mechanical dissociation, which consisted in cells trituration in a DMEM D7777 medium supplemented with 44 mm NaHCO3, 10 ml/L antibiotic/antimycotic solution and 10% FCS. The cells were seeded at an average density of ˜10′000 cells/cm^2 on poly-D-lysine coated 96- or 12-well culture plates, depending on their use, and grown in DMEM D7777 medium supplemented with 44 mm NaHCO3, 10 ml/L antibiotic/antimycotic solution and 10% FCS at 37° C. in a humidified atmosphere containing 5% CO2/95% air. Culture medium was renewed twice a week. Cells were stimulated and harvested between DIV14 and DIV17, when confluence and cell growth were optimal.
(§1) Secretion of L-lactate was measured in the extracellular medium of 96-well plated astrocytes after 90 min stimulation (at 37° C., in 5% CO2/95% air conditions) with Vehicle (DMSO), the compounds of the invention (100 nM to 100 μM) or positive control. […] Stimulation medium was composed of D5030 medium complemented with 5 mM D-glucose and 44 mM sodium bicarbonate, pH 7.2. To quantify lactate concentrations in the extracellular medium, 200 μl of a 0.2M Glycine-semicarbazide buffer (pH 10) containing 3 mM NAD and 14 U/ml LDH was added to each well of a 96-well plate containing 30 μl aliquots of extracellular medium. Samples were incubated at 37° C. for 1 h. Fluorescence intensity (340 nm excitation/450 nm emission), which represents the amount of NADH produced, was measured, and lactate concentration values were determined relative to a standard curve of L-lactate concentrations.
The release of lactate from primary mouse astrocytes treated with compound (1) at 10 μM was quantified by (FIG. 1). Accumulation of lactate in the extracellular medium was measured over a period of 1.5 h. […] Maximal effects of the compounds were 38.6% (1), 38% (2), 31% (4) and 76% (3) when compared to the effect of the positive control (100%) for compounds (1) to (4), respectively.

[1] = tested on: astrocytes transfected with scramble siRNA; assay: 2-deoxyglucose (2DG) uptake, scramble siRNA astrocytes; assay type: cell-based, mouse; conditions: 30 min treatment, 1 or 10 μM, vs vehicle
Method: Astrocytes grown on 12-well plates and transfected with either scramble siRNA or GLUT1 siRNA were used. 1 day after having replaced transfection medium (DIV13), 2DG uptake was measured after treatment for 30 min with Vehicle (0.1% DMSO) or with the compound of the invention (1) (concentrations of 1 or 10 μM). During treatment, 1 mM 2DG was added to the medium for assessment of 2DG uptake. At the end of the stimulation, medium was removed and replaced with 150 μl NaOH 0.1M, and stored at −20° C. After thawing, cells were collected using cell scraper and heated for 40 min at 85° C. Then, 150 ul HCl 0.1M and TAE buffer 200 mM was added to each condition. 20 μl were added to a transparent 96-well plate and 2DG was quantified by addition of a reaction solution containing 50 mM TAE, 50 mM KCl, 0.02% BSA, 0.1 mM NADP, 0.2 U/ml diaphorase, 2 mM resazurin and 20 U/ml glucose-6-phosphate dehydrogenase. Concentration of 2DG in samples were calculated by comparison with standard curve of deoxy-glucose-6-phosphate ranging from 0 to 1 nmoles.
(§2) Scramble and GLUT1 siRNA sequences were as following:
Cells were grown in transfection medium for 3 days at 37° C. in a humidified atmosphere containing 5% CO2/95% air. […]
2DG uptake after treatment with Veh or compound of the invention (1) was measured in astrocytes transfected with scramble siRNA or GLUT1 siRNA (FIG. 4A).

[2] = tested on: astrocytes transfected with scramble siRNA; assay: Lactate secretion, scramble siRNA astrocytes; assay type: cell-based, mouse; conditions: vs vehicle
Method: as §1, §2
Cells were grown in transfection medium for 3 days at 37° C. in a humidified atmosphere containing 5% CO2/95% air. After 3 days, transfection medium was replaced with DMEM D5030 supplemented with 44 mM NaHCO3 and 5 mM D-Glucose (1 ml per well).
Lactate secretion after treatment with Veh or compound of the invention (1) was measured in astrocytes transfected with scramble siRNA or GLUT1 siRNA (FIG. 4B).

For `COc1cc2ccnc(Nc3ccc(OC(F)(F)F)cc3)c2cc1OC` [Example 1, 6,7-dimethoxy-N-(4-(trifluoromethoxy)phenyl)isoquinolin-1-amine], the EC50 (primary mouse astrocytes; Astrocyte, 1.5 h, primary mouse astrocytes, 90 min stimulation, read-out: EC50 of astrocyte-mediated lactate secretion) was 7.02 µM, the Emax (primary mouse astrocytes; Mus musculus, Astrocyte, 1.5 h, positive control CCCP 2 μM, 90 min, read-out: Maximal effect on lactate secretion compared to the effect of the positive control (100%)) was 38.6% and the “Concentration at which effect on lactate release is already significant” value (primary mouse astrocytes; primary mouse astrocytes, 90 min) was “below 1 μM”. For the same compound, the 2DG uptake [1] was “significantly enhances 2DG uptake” and the Lactate secretion [2] was “significantly enhances lactate secretion”.
